From PMC9728921, “Characterization of a KDM5 small molecule inhibitor with antiviral activity against hepatitis B virus” (PLOS ONE, 2022)

Experiments:
[1] = molecular target: T1, KDM5A (Homo sapiens, UniProt P29375); test: KDM5A enzymatic assay (CisBio HTRF); assay type: biochemical
T1 construct: purchased Reaction Biology Corp (assay run there as a contract service)
Experimental: (§1) KDM5A and 5B were tested using CisBio HTRF assay platform by Reaction Biology Corp (Malvern, PA). All concentrations are final unless noted otherwise. Inhibitors were pre-incubated with 2.5 nM KDM5A or 1.2 nM KDM5B in a 5 μL reaction mixture containing 50 mM HEPES (pH 7.5), 50 mM NaCl, 0.01% Tween 20, 0.01% BSA for 15 min temperature. The reaction was initiated by addition of 5 μL of 50 nM Biotin-H3K4me3 and incubated with gentle shaking for 45 min at RT. The reaction was quenched with 10 mM EDTA and 200 mM potassium fluoride. Upon addition of Eu-Antibody and Streptavidine-XL665, the mixture was incubated for 2 hours in the dark. The fluorescence resonance energy transfer was measured using an excitation wavelength of 320 nm and emission wavelength of 665 nm on an Envision plate reader (Perkin Elmer).
(§2) Data was analyzed using GraphPad Prism 6.0 (La Jolla, CA). […] IC50 values were calculated as an average of at least two independent experiments.

[2] = molecular target: T2, KDM5B (Homo sapiens, UniProt Q9UGL1); test: KDM5B enzymatic assay (CisBio HTRF); assay type: biochemical
T2 construct: purchased Reaction Biology Corp (assay run there as a contract service)
T2 sequence (Q9UGL1 whole entry): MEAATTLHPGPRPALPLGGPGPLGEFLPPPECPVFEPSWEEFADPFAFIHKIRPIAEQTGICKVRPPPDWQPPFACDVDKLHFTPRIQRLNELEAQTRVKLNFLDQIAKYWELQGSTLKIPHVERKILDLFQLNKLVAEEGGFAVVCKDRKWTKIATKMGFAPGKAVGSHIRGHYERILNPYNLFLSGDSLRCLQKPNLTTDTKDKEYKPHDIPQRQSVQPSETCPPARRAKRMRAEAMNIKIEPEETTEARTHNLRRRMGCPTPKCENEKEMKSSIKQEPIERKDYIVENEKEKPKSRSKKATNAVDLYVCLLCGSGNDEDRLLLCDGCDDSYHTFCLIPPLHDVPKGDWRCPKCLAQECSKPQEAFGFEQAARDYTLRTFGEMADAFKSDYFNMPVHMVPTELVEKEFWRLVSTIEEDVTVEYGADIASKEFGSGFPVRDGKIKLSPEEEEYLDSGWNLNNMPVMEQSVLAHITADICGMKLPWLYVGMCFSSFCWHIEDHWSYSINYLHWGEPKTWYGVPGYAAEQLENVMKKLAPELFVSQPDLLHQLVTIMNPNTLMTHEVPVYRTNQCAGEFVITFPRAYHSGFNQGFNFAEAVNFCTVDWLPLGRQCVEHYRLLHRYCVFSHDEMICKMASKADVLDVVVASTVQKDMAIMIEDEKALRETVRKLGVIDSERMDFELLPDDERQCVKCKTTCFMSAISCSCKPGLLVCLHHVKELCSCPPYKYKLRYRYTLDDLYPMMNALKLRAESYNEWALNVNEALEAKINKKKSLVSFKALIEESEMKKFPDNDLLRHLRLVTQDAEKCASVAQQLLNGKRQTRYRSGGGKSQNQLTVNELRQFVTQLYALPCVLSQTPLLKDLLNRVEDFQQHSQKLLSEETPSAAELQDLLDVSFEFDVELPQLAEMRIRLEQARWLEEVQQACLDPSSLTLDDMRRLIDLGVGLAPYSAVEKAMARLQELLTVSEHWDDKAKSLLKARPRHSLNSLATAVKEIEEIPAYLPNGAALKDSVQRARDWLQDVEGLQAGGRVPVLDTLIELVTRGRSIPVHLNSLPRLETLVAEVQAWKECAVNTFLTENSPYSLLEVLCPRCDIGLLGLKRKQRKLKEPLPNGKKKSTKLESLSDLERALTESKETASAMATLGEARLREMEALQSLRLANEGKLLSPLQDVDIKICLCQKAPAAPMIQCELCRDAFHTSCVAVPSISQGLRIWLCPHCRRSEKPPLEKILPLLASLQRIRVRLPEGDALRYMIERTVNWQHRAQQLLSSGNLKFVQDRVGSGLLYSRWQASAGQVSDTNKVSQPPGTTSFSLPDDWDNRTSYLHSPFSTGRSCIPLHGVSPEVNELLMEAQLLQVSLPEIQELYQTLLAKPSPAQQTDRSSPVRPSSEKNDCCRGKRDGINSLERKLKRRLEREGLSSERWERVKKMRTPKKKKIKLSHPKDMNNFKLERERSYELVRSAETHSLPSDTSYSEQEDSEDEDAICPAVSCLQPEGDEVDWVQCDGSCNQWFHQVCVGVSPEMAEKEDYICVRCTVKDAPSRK
Experimental: as §1, §2

[3] = molecular target: KDM5C (Homo sapiens, UniProt P41229); test: KDM5C enzymatic assay (AlphaLISA); assay type: biochemical
Sequence of KDM5C (P41229 whole entry): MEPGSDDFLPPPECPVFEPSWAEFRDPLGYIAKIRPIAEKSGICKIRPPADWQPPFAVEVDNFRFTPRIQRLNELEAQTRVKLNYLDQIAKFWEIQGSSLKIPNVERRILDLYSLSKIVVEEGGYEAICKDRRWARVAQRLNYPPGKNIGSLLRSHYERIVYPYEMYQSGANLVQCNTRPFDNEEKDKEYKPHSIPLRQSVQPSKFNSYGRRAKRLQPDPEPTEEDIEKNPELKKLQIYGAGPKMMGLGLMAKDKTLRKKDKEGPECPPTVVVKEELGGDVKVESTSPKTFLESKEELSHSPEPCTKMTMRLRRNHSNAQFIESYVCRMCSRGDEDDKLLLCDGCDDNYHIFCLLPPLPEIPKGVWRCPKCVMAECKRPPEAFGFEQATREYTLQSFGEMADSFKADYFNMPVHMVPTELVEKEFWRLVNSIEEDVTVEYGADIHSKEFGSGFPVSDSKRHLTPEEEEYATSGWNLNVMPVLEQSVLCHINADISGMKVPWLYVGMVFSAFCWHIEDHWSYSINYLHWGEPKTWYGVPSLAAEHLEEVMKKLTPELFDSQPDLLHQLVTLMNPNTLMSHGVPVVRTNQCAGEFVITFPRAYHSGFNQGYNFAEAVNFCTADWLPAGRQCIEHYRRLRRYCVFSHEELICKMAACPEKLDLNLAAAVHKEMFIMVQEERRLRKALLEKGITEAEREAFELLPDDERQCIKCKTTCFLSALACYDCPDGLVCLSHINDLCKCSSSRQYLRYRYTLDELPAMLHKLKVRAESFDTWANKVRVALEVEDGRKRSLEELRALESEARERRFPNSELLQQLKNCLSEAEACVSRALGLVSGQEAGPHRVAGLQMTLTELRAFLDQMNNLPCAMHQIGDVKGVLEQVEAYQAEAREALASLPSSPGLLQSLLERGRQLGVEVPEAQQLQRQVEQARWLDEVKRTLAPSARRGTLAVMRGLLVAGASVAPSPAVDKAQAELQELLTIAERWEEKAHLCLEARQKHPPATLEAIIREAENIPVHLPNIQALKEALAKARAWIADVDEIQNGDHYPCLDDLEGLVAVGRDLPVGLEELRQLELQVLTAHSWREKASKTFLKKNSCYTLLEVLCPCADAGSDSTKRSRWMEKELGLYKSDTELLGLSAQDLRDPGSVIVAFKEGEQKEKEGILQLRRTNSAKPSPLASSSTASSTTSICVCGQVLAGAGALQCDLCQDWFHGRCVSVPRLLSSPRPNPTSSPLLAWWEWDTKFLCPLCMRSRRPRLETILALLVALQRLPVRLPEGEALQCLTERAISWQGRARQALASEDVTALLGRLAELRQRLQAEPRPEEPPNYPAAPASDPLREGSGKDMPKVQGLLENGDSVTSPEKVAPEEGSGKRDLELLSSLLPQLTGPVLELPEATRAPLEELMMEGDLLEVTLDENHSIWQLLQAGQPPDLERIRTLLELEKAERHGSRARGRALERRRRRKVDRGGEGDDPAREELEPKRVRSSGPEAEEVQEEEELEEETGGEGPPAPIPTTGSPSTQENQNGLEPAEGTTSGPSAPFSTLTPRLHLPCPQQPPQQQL
Experimental: The following assay protocol was used for all histone demethylases tested except KDM1A, KDM5A, B, and D, which are described below. Compounds were serially diluted into a 384-well Alpha plate as a DMSO solution and mixed with 5 μL reaction buffer (buffer A) containing 50 mM HEPES (pH 7.0), 0.1% BSA, and 0.003% Tween-20. The enzyme of interest was pre-incubated with 15 μM of Fe^2+ for 10 min (except 30 min for KDM2B) in reaction buffer A. 5 μL of the enzyme mixture was added to each of the compound-containing wells and incubated for 10 min. The reaction was started by addition of a 5 μL mixture containing 300 nM peptide substrate, 75 μM L-ascorbic acid, and 30 μM α-ketoglutarate in buffer A. This final 15 μL of reaction mixture was incubated for 20 min for KDM5B and 1 hour for the other KDM enzymes. The reaction was quenched with 10 μL of diluted AlphaLISA Acceptor beads (1:400) in Epigenetics Buffer and incubated for 60 min. The Donor beads were diluted 1:400 into Epigenetics Buffer in the dark and 10 μL of this was added to each well and incubated for another 60 min in the dark. The assay plates were read on an Enspire plate reader (PerkinElmer) using a standard AlphaLISA program.
as §2

[4] = molecular target: T3, DOT1L (Homo sapiens, UniProt Q8TEK3); test: Histone methyltransferase enzymatic assay, DOT1L; assay type: biochemical; conditions: enzyme conc. 2 nM
T3 construct: 1-416; BRIC
Experimental: (§3) Histone methyltransferase assays were performed in 96-well half-area optiplates (PerkinElmer) at room temperature. All concentrations are final unless noted otherwise. Compounds were serially diluted in DMSO and the final DMSO concentration was 1%. A 24 μL reaction mixture contained compound, enzyme, 200 nM of nucleosome or histone substrate, 400 nM ^3H-SAM (83.1 Ci/mmol), 50 mM Tris-HCl (pH 8.0), 50 mM NaCl, 5 mM MgCl2, 1 mM DTT, and 0.01% Tween-20. The plate was sealed, mixed on a Titramax plate shaker at 1200 rpm for 30 sec, and incubated at room temperature for 60 min. The reaction was quenched by addition of 24 μL mixture containing 5 mg/mL PVT-PEI beads and 300 μM unlabeled SAM in water. The plate was sealed, mixed as previously noted, incubated overnight, and read on a TopCount plate reader (PerkinElmer).
as §2

[5] = molecular target: T4, NSD1 (Homo sapiens, UniProt Q96L73); test: Histone methyltransferase enzymatic assay, NSD1; assay type: biochemical; conditions: enzyme conc. 50 nM
T4 construct: 1538-2696; purchased RBC (read as Reaction Biology Corporation, named)
Experimental: as §3, §2

[6] = molecular target: T5, GLP (Homo sapiens, UniProt Q9H9B1); test: Histone methyltransferase enzymatic assay, GLP; assay type: biochemical; conditions: enzyme conc. 100 nM; read-out: IC50
T5 construct: 894-1298; purchased RBC (read as Reaction Biology Corporation, named)
Experimental: as §3, §2

[7] = molecular target: PRMT5/MEP50 (Homo sapiens, UniProt O14744); test: Histone methyltransferase enzymatic assay, PRMT5/MEP50; assay type: biochemical; conditions: enzyme conc. 100 nM
Experimental: as §3, §2

[8] = tested on: KDM enzymes; test: KDM enzyme panel, selectivity across KDM families; assay type: biochemical, human
Experimental: The following assay protocol was used for all histone demethylases tested except KDM1A, KDM5A, B, and D, which are described below. Compounds were serially diluted into a 384-well Alpha plate as a DMSO solution and mixed with 5 μL reaction buffer (buffer A) containing 50 mM HEPES (pH 7.0), 0.1% BSA, and 0.003% Tween-20. The enzyme of interest was pre-incubated with 15 μM of Fe^2+ for 10 min (except 30 min for KDM2B) in reaction buffer A. 5 μL of the enzyme mixture was added to each of the compound-containing wells and incubated for 10 min. […] The assay plates were read on an Enspire plate reader (PerkinElmer) using a standard AlphaLISA program.
KDM5A and 5B were tested using CisBio HTRF assay platform by Reaction Biology Corp (Malvern, PA). […] The fluorescence resonance energy transfer was measured using an excitation wavelength of 320 nm and emission wavelength of 665 nm on an Envision plate reader (Perkin Elmer). […]
The KDM1 assay was conducted in the presence of […] but without Fe(II) or ascorbic acid. […] The assay plates were read on an Enspire plate reader (PerkinElmer) using a standard AlphaLISA program.
as §2

T1 sequence (P29375 whole entry): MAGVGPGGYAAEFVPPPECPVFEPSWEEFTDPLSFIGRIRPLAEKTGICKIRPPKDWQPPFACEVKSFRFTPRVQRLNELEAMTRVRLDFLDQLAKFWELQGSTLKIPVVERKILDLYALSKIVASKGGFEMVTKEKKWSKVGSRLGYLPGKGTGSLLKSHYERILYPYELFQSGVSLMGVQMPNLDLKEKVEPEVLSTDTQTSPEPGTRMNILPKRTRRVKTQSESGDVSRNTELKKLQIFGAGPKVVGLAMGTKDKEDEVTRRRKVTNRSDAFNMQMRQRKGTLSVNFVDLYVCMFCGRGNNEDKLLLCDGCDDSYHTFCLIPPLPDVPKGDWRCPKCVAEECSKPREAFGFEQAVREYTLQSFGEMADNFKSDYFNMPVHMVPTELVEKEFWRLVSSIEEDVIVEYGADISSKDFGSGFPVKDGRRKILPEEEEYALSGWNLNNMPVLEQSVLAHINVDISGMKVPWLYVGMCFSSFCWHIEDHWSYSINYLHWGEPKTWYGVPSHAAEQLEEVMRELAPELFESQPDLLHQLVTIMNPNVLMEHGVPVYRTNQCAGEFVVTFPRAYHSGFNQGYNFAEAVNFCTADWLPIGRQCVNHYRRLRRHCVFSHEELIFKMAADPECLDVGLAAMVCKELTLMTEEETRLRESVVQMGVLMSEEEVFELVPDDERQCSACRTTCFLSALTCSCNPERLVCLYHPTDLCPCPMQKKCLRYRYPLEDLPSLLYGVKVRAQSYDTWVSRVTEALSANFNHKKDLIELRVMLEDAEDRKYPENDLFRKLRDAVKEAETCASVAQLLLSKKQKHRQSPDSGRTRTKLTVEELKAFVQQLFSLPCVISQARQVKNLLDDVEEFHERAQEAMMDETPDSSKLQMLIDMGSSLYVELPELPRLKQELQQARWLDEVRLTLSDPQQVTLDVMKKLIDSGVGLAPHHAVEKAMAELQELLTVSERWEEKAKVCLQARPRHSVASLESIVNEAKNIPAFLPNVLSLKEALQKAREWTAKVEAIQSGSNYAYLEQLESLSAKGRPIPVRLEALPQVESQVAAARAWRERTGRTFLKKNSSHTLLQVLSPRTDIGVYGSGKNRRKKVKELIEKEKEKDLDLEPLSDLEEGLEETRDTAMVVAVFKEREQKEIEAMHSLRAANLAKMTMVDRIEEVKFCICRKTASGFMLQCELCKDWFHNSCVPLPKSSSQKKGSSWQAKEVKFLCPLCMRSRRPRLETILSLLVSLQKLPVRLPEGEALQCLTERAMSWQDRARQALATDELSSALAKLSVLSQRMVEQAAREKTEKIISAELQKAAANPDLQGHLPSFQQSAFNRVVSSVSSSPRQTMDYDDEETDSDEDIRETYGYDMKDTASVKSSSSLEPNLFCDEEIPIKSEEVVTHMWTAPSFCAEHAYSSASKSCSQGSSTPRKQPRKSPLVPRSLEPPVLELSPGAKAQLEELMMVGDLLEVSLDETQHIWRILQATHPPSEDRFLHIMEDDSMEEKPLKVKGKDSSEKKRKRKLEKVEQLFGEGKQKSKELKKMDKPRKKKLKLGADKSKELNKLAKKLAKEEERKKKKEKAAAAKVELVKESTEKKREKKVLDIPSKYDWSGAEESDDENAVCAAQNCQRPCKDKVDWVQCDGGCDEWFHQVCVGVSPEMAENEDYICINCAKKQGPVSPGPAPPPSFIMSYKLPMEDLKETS

## CCN(CCN(C)C)C(=O)CNCc1cc(C(=O)O)ccn1 [GS-080]
[1]; IC50 of KDM5A over KDM5A
  Fold Selectivity Compared to KDM5A: 1 fold
[1]; enzyme concentration 2.5 nM, IC50 lower than enzyme concentration, likely underestimates potency
  IC50: 0.36 nM
[2]; IC50 of KDM5B over KDM5A
  Fold Selectivity Compared to KDM5A: 1 fold
[2]; enzyme concentration 1.2 nM, IC50 lower than enzyme concentration, likely underestimates potency
  IC50: 0.38 nM
[3]; IC50 of KDM5C over KDM5A
  Fold Selectivity Compared to KDM5A: 10 fold
[3]; enzyme concentration 1 nM
  IC50: 3.7 nM
[4]
  IC50: > 100000 nM
[5]
  IC50: > 100000 nM
[6]
  IC50: > 100000 nM
[7]
  IC50: > 100000 nM
[8]; KDM4A –C
  fold selectivity for KDM5A and KDM5B over members of the KDM4 family: ≥ 13 fold
[8]; printed as from > 1,100- to > 278,000-fold, relative to KDM5A
  fold selectivity over members of the other KDM enzyme families tested: > 1,100 fold
